Test results reported in ChEMBL document CHEMBL5528028, “Discovery of benzopyridone cyanoacetates as new type of potential broad-spectrum antibacterial candidates” (Eur J Med Chem, 2024).
≈ marks a conversion by molar mass, not a printed value.

Key:
Format in all cases: functional
Klebsiella pneumoniae = experiment: Antibacterial activity against Klebsiella pneumonia assessed growth inhibition by micro broth dilution method
Enterococcus faecalis = experiment: Antibacterial activity against Enterococcus faecalis assessed growth inhibition by micro broth dilution method
Staphylococcus aureus [1] = experiment: Antibacterial activity against Staphylococcus aureus ATCC 25923 assessed growth inhibition by micro broth dilution method
Pseudomonas aeruginosa [2] = experiment: Antibacterial activity against Pseudomonas aeruginosa assessed growth inhibition by micro broth dilution method
Escherichia coli [3] = experiment: Antibacterial activity against Escherichia coli ATCC 25922 assessed growth inhibition by micro broth dilution method
Staphylococcus aureus [4] = experiment: Antibacterial activity against methicillin-resistant Staphylococcus aureus assessed growth inhibition by micro broth dilution method
Staphylococcus aureus [5] = experiment: Antibacterial activity against Staphylococcus aureus assessed growth inhibition by micro broth dilution method
Staphylococcus aureus [6] = experiment: Antibacterial activity against Staphylococcus aureus ATCC 29213 assessed growth inhibition by micro broth dilution method
Acinetobacter baumannii = experiment: Antibacterial activity against Acinetobacter baumannii assessed growth inhibition by micro broth dilution method
Escherichia coli [7] = experiment: Antibacterial activity against Escherichia coli assessed growth inhibition by micro broth dilution method
Pseudomonas aeruginosa [8] = experiment: Antibacterial activity against Pseudomonas aeruginosa ATCC 27853 assessed growth inhibition by micro broth dilution method

Structure (SMILES) | MIC (Klebsiella pneumoniae) | MIC (Enterococcus faecalis) | MIC (Staphylococcus aureus [1]) | MIC (Pseudomonas aeruginosa [2]) | MIC (Escherichia coli [3]) | MIC (Staphylococcus aureus [4]) | MIC (Staphylococcus aureus [5]) | MIC (Staphylococcus aureus [6]) | MIC (Acinetobacter baumannii) | MIC (Escherichia coli [7]) | MIC (Pseudomonas aeruginosa [8])
CCOC(=O)c1cn(Cc2ccc(F)cc2F)c2cc(C(C#N)C(=O)OCC)c(F)cc2c1=O (centres undefined) | 4 µg/mL (≈ 8.47 µM) | 16 µg/mL (≈ 33.9 µM) | 4 µg/mL (≈ 8.47 µM) | 2 µg/mL (≈ 4.23 µM) | 16 µg/mL (≈ 33.9 µM) | 32 µg/mL (≈ 67.7 µM) | 8 µg/mL (≈ 16.9 µM) | 4 µg/mL (≈ 8.47 µM) | 32 µg/mL (≈ 67.7 µM) | 16 µg/mL (≈ 33.9 µM) | 4 µg/mL (≈ 8.47 µM)
CCOC(=O)c1cn(C2CC2)c2cc([C-](C#N)C(=O)OCC)c(F)cc2c1=O.[Na+] (centres undefined) | 16 µg/mL | 16 µg/mL | 8 µg/mL | 32 µg/mL | 32 µg/mL | 16 µg/mL | 32 µg/mL | 32 µg/mL | 32 µg/mL | 16 µg/mL | 16 µg/mL
CCOC(=O)c1cn(CC(N)=O)c2cc(F)c(F)cc2c1=O | 256 µg/mL (≈ 825 µM) | 256 µg/mL (≈ 825 µM) | 256 µg/mL (≈ 825 µM) | 64 µg/mL (≈ 206 µM) | 32 µg/mL (≈ 103 µM) | 256 µg/mL (≈ 825 µM) | 128 µg/mL (≈ 413 µM) | 256 µg/mL (≈ 825 µM) | 16 µg/mL (≈ 51.6 µM) | 8 µg/mL (≈ 25.8 µM) | 64 µg/mL (≈ 206 µM)
CCCCCCCCCCCCn1cc(C(=O)OCC)c(=O)c2cc(F)c([C-](C#N)C(=O)OCC)cc21.[Na+] (centres undefined) | 1 µg/mL | 8 µg/mL | 1 µg/mL | 4 µg/mL | 0.5 µg/mL | 8 µg/mL | 32 µg/mL | 1 µg/mL | 0.25 µg/mL | 1 µg/mL | 0.25 µg/mL
CCOC(=O)c1cn(CC)c2c(F)c(F)c(F)cc2c1=O | 32 µg/mL (≈ 107 µM) | 128 µg/mL (≈ 428 µM) | 64 µg/mL (≈ 214 µM) | 32 µg/mL (≈ 107 µM) | 64 µg/mL (≈ 214 µM) | 128 µg/mL (≈ 428 µM) | 32 µg/mL (≈ 107 µM) | 128 µg/mL (≈ 428 µM) | 32 µg/mL (≈ 107 µM) | 8 µg/mL (≈ 26.7 µM) | 256 µg/mL (≈ 855 µM)
CCOC(=O)C(C#N)c1cc2c(cc1F)c(=O)c(C(=O)O)cn2Cc1ccc(Cl)c(Cl)c1 (centres undefined) | 4 µg/mL (≈ 8.38 µM) | 128 µg/mL (≈ 268 µM) | 32 µg/mL (≈ 67 µM) | 16 µg/mL (≈ 33.5 µM) | 0.5 µg/mL (≈ 1.05 µM) | 32 µg/mL (≈ 67 µM) | 64 µg/mL (≈ 134 µM) | 64 µg/mL (≈ 134 µM) | 16 µg/mL (≈ 33.5 µM) | 128 µg/mL (≈ 268 µM) | 4 µg/mL (≈ 8.38 µM)
C#CCn1cc(C(=O)OCC)c(=O)c2cc(F)c([C-](C#N)C(=O)OCC)cc21.[Na+] (centres undefined) | 16 µg/mL | 32 µg/mL | 2 µg/mL | 32 µg/mL | 8 µg/mL | 64 µg/mL | 64 µg/mL | 16 µg/mL | 16 µg/mL | 16 µg/mL | 8 µg/mL
CCOC(=O)c1cn(CC2CC2)c2cc([C-](C#N)C(=O)OCC)c(F)cc2c1=O.[Na+] (centres undefined) | 16 µg/mL | 64 µg/mL | 4 µg/mL | 16 µg/mL | 4 µg/mL | 64 µg/mL | 64 µg/mL | 16 µg/mL | 16 µg/mL | 16 µg/mL | 8 µg/mL
CCOC(=O)C(C#N)c1c(F)cc2c(=O)c(C(=O)O)cn3c2c1OC[C@@H]3C (some centres undefined) | 8 µg/mL (≈ 21.4 µM) | 128 µg/mL (≈ 342 µM) | 32 µg/mL (≈ 85.5 µM) | 16 µg/mL (≈ 42.7 µM) | 1 µg/mL (≈ 2.67 µM) | 4 µg/mL (≈ 10.7 µM) | 4 µg/mL (≈ 10.7 µM) | 4 µg/mL (≈ 10.7 µM) | 1 µg/mL (≈ 2.67 µM) | 32 µg/mL (≈ 85.5 µM) | 8 µg/mL (≈ 21.4 µM)
CCOC(=O)c1cn(CC2CCCC2)c2cc([C-](C#N)C(=O)OCC)c(F)cc2c1=O.[Na+] (centres undefined) | 8 µg/mL | 2 µg/mL | 8 µg/mL | 8 µg/mL | 2 µg/mL | 16 µg/mL | 16 µg/mL | 4 µg/mL | 4 µg/mL | 128 µg/mL | 8 µg/mL
CCOC(=O)c1cn(CC(N)=O)c2cc([C-](C#N)C(=O)OCC)c(F)cc2c1=O.[Na+] (centres undefined) | 256 µg/mL | 256 µg/mL | 256 µg/mL | 256 µg/mL | 256 µg/mL | 256 µg/mL | 256 µg/mL | 256 µg/mL | 256 µg/mL | 256 µg/mL | 256 µg/mL
CCOC(=O)c1cn(Cc2cnc(Cl)s2)c2cc(F)c(F)cc2c1=O | 64 µg/mL (≈ 166 µM) | 32 µg/mL (≈ 83.2 µM) | 4 µg/mL (≈ 10.4 µM) | 64 µg/mL (≈ 166 µM) | 32 µg/mL (≈ 83.2 µM) | 32 µg/mL (≈ 83.2 µM) | 256 µg/mL (≈ 665 µM) | 32 µg/mL (≈ 83.2 µM) | 32 µg/mL (≈ 83.2 µM) | 8 µg/mL (≈ 20.8 µM) | 16 µg/mL (≈ 41.6 µM)
CCOC(=O)c1cn(CC2CCC2)c2cc([C-](C#N)C(=O)OCC)c(F)cc2c1=O.[Na+] (centres undefined) | 8 µg/mL | 2 µg/mL | 4 µg/mL | 16 µg/mL | 2 µg/mL | 16 µg/mL | 8 µg/mL | 8 µg/mL | 4 µg/mL | 64 µg/mL | 8 µg/mL
CCOC(=O)c1cn(Cc2ccc([N+](=O)[O-])cc2)c2cc(F)c(F)cc2c1=O | 256 µg/mL (≈ 659 µM) | 256 µg/mL (≈ 659 µM) | 256 µg/mL (≈ 659 µM) | 256 µg/mL (≈ 659 µM) | 128 µg/mL (≈ 330 µM) | 256 µg/mL (≈ 659 µM) | 128 µg/mL (≈ 330 µM) | 256 µg/mL (≈ 659 µM) | 16 µg/mL (≈ 41.2 µM) | 2 µg/mL (≈ 5.15 µM) | 256 µg/mL (≈ 659 µM)
C=CCn1cc(C(=O)OCC)c(=O)c2cc(F)c(F)cc21 | 32 µg/mL (≈ 109 µM) | 128 µg/mL (≈ 436 µM) | 64 µg/mL (≈ 218 µM) | 64 µg/mL (≈ 218 µM) | 64 µg/mL (≈ 218 µM) | 256 µg/mL (≈ 873 µM) | 128 µg/mL (≈ 436 µM) | 128 µg/mL (≈ 436 µM) | 256 µg/mL (≈ 873 µM) | 8 µg/mL (≈ 27.3 µM) | 256 µg/mL (≈ 873 µM)
CCOC(=O)c1cn(CC2CCCCC2)c2cc(F)c(F)cc2c1=O | 8 µg/mL (≈ 22.9 µM) | 128 µg/mL (≈ 366 µM) | 2 µg/mL (≈ 5.72 µM) | 64 µg/mL (≈ 183 µM) | 128 µg/mL (≈ 366 µM) | 128 µg/mL (≈ 366 µM) | 16 µg/mL (≈ 45.8 µM) | 64 µg/mL (≈ 183 µM) | 256 µg/mL (≈ 733 µM) | 4 µg/mL (≈ 11.4 µM) | 256 µg/mL (≈ 733 µM)
CCOC(=O)c1cn(Cc2ccccc2Cl)c2cc([C-](C#N)C(=O)OCC)c(F)cc2c1=O.[Na+] (centres undefined) | 4 µg/mL | 1 µg/mL | 0.5 µg/mL | 16 µg/mL | 2 µg/mL | 64 µg/mL | 256 µg/mL | 2 µg/mL | 32 µg/mL | 0.25 µg/mL | 2 µg/mL
CCOC(=O)c1cn(CC2CCC2)c2cc(F)c(F)cc2c1=O | 32 µg/mL (≈ 99.6 µM) | 128 µg/mL (≈ 398 µM) | 16 µg/mL (≈ 49.8 µM) | 32 µg/mL (≈ 99.6 µM) | 128 µg/mL (≈ 398 µM) | 256 µg/mL (≈ 797 µM) | 64 µg/mL (≈ 199 µM) | 256 µg/mL (≈ 797 µM) | 128 µg/mL (≈ 398 µM) | 16 µg/mL (≈ 49.8 µM) | 256 µg/mL (≈ 797 µM)
CCOC(=O)c1cn(CC)c2c(F)c([C-](C#N)C(=O)OCC)c(F)cc2c1=O.[Na+] (centres undefined) | 16 µg/mL | 32 µg/mL | 16 µg/mL | 64 µg/mL | 1 µg/mL | 32 µg/mL | 16 µg/mL | 16 µg/mL | 32 µg/mL | 64 µg/mL | 16 µg/mL
